Measured values from patent US11724980B2, “Quinones having high capacity retention for use as electrolytes in aqueous redox flow batteries” (President and Fellows of Harvard College, priority 2018, dated 2023).
Several values for one entry are separate records, joined by “and”; a condition that tells them apart may be missing. Identical values can stand only once.

How the values were obtained:
[1] = CV simulation as two one-electron reductions; assay type: physicochemical; settings: 5 mM in 1 M KOH
Method: FIG. 6. Capacitance-corrected CV of 5 mM 2,6-DBEAQ in 1 M KOH (solid grey line). The dashed red line represents the simulated total current arising from two successive one-electron reductions with reduction potentials of −0.517 and −0.511 V vs. SHE, according to the procedure outlined in a previous publication.^1 Each simulated reduction has a rate constant ko=7×10^−3 cm/s and α=0.5.
A first CV experiment was performed in which 2,6-DBEAQ was dissolved in pH 14 KOH solution at a concentration of 5 mM. CV measurements were plotted in FIG. 5A and include results for the isomers of 2,6-DBEAQ.
Following our previous study on 2,6-DHAQ^17 and literature reports^1,18 on quinone electrochemistry in the absence of proton donors, we simulated the CV of 2,6-DBEAQ as representing two reversible electron transfer steps at two different potentials E1 and E2. The separation between simulated redox potentials for the first (E1) and second (E2) electron reductions for 2,6-DBEAQ is considerably narrower than the corresponding peak separation for 2,6-DHAQ^17 (6 mV vs. 60 mV).
The pH dependence of the proton-coupled electron transfer (POET) redox reaction for a generalized anthraquinone (AQ) is often visualized by the nine-membered square scheme (FIG. 7). The horizontal direction indicates electron transfer (ET), and the vertical direction indicates proton transfer (PT or protonation). Under strongly alkaline conditions, where the pH is higher than the second pKa (pKa2) of the reduced AQ (AQ^2−), no protonation of the semiquinone anion will take place, and reduction proceeds via two ET steps, from AQ to a semiquinone (AQ-^●) at E1, and from AQ-^● to AQ^2− at E2 which is typically <E1. Depending on the value of E1-E2, the mechanism of AQ reduction in alkaline conditions can either be a concerted one-step, two-electron process or two single-electron processes. […]

[2] = Cyclic voltammetry on glassy carbon electrode; assay type: physicochemical
Method: Glassy carbon was used as the working electrode for all three-electrode CV tests. RDE experiments were conducted using a Pine Instruments Modulated Speed Rotator AFMSRCE equipped with a 5 mm diameter glassy carbon working electrode, a Ag/AgCl reference electrode (BASi, pre-soaked in 3 M NaCl solution), and a graphite counter electrode. The electrode was rotated at a specific speed while the voltage was linearly swept from −0.4 to −0.11 V vs. Ag/AgCl (FIG. 4A). […].
A second CV experiment was performed in which 2,6-DBEAQ was dissolved in pH 14 KOH solution at a concentration of 2 mM. CV measurements were plotted in FIG. 4C. The standard equilibrium potential was determined to be −0.49 V vs. SHE. The separation between the peaks in the CV curves was 42 mV, indicating fairly rapid and reversible electrochemical reactions at the surface of the electrodes.

SMILES: O=C([O-])CCCOc1ccc2c(c1)C(=O)c1ccc(OCCCC(=O)[O-])cc1C2=O.[K+].[K+] [2,6-DBEAQ, 4,4′-((9,10-anthraquinone-2,6-diyl)dioxy)dibutyric acid]
- rate constant ko of each simulated reduction ([1]; α=0.5): 0.007 cm/s
- E1-E2 separation ([1]; simulated CV): 6 mV
- redox potential higher than that of 2,6-DHAQ [2]: ~200 mV
- pH above which the potential is pH-independent ([2]; Pourbaix diagram): 11.5 and ~11.5
- Pourbaix diagram slope ([2]; fit to data below pH 12): −35 mV/pH
- separation between the peaks in the CV curves ([2]; pH 14 KOH, 2 mM): 42 mV
- standard equilibrium potential ([2]; pH 14 KOH, 2 mM): −0.49 V vs. SHE
